Reference: the NIST ThermoML archive (doi:10.1021/je700260f)

Details: 313.15 K, Liquid, Vibrating tube method

FC(C(F)(F)F)C(F)(F)F [1,1,1,2,3,3,3-heptafluoropropane]
Details | mass density [kg/m3]
2851 kPa | 1343.2
2872 kPa | 1343.4
2905 kPa | 1343.7
2928 kPa | 1343.9
2959 kPa | 1344.2
2986 kPa | 1344.4
3012 kPa | 1344.6
3042 kPa | 1345
3072 kPa | 1345.3
3095 kPa | 1345.4
3298 kPa | 1347.3
3325 kPa | 1347.5
3356 kPa | 1347.8
3379 kPa | 1348
3402 kPa | 1348.2
3437 kPa | 1348.6
3464 kPa | 1348.7
3491 kPa | 1349.1
3518 kPa | 1349.3
3548 kPa | 1349.5
3572 kPa | 1349.7
3603 kPa | 1350.1
3625 kPa | 1350.2
3656 kPa | 1350.5
3679 kPa | 1350.7
3702 kPa | 1350.9
3737 kPa | 1351.2
3761 kPa | 1351.4
3794 kPa | 1351.7
3822 kPa | 1352
3858 kPa | 1352.3
3898 kPa | 1352.7
3926 kPa | 1352.9
3954 kPa | 1353.2
3982 kPa | 1353.4
4018 kPa | 1353.5
4043 kPa | 1353.9
4079 kPa | 1354.3
4110 kPa | 1354.6
4134 kPa | 1354.8
4167 kPa | 1355
4208 kPa | 1355.4
4360 kPa | 1356.6
4382 kPa | 1356.8
4410 kPa | 1357
4435 kPa | 1357.3
4463 kPa | 1357.5
4732 kPa | 1359.7
4757 kPa | 1360
4793 kPa | 1360.1
4811 kPa | 1360.4
4847 kPa | 1360.6
4872 kPa | 1360.9
4904 kPa | 1361.1
4929 kPa | 1361.5
4958 kPa | 1361.6
4976 kPa | 1361.7
5023 kPa | 1362.3
5048 kPa | 1362.3
5074 kPa | 1362.5
5096 kPa | 1362.7
5125 kPa | 1363.1
5148 kPa | 1363.1
5167 kPa | 1363.4
5200 kPa | 1363.6
5222 kPa | 1363.9
5259 kPa | 1364
5281 kPa | 1364.2
5308 kPa | 1364.4
5330 kPa | 1364.6
5357 kPa | 1364.8
5383 kPa | 1365.1
5409 kPa | 1365.3
5434 kPa | 1365.4
5457 kPa | 1365.7
5485 kPa | 1365.9
5508 kPa | 1366.1
5534 kPa | 1366.3
5560 kPa | 1366.5
5593 kPa | 1366.7
5616 kPa | 1366.9
5646 kPa | 1367.1
5672 kPa | 1367.3
5694 kPa | 1367.6
5717 kPa | 1367.8
5739 kPa | 1367.9
5766 kPa | 1368
5801 kPa | 1368.3
5828 kPa | 1368.5
5847 kPa | 1368.7
5870 kPa | 1368.9
5901 kPa | 1369.2
5932 kPa | 1369.4
5959 kPa | 1369.7
5987 kPa | 1369.8
6022 kPa | 1370
6049 kPa | 1370.4
6073 kPa | 1370.5
6096 kPa | 1370.6
6128 kPa | 1370.8
6163 kPa | 1371.1
6406 kPa | 1372.9
6434 kPa | 1373
